# Assay results from patent US7247444B2, “Use of interleukin-19 to treat cervical cancer” (ZymoGenetics, Inc., priority 2002, dated 2007).
# B1: IL-19: interleukin-19 polypeptide, SEQ ID NO:2; mature secreted form from amino acid 23 (His) to 177 (Ala) (protein, listed as Homo sapiens)
# chain: MKLQCVSLWLLGTILILCSVDNHGLRRCLISTDMHHIEESFQEIKRAIQAKDTFPNVTILSTLETLQIIKPLDVCCVTKNLLAFYVDRVFKDHQEPNPKILRKISSIANSFLYMQKTLRQCQEQRQCHCRQEATNATRVIHDNYDQLEVHAAAIKSLGELDVFLAWINKNHEVMSSA
# System: HeLa299
# Experiment: HeLa299 cytoxicity assay (MTT readout)
# Format: cell-based
# Conditions: HeLa299 cells, 72 hrs, complete growth media
# Experimental: We tested IL-19 in a HeLa299 cytoxicity assay to measure the ability of IL-19 to prevent cells from growing during normal growth conditions. We used MTT reagent (Promega, Madison, USA) as our detection and readout for this cell inhibition assay. Procedure of a cytoxicity assay: • Day 1—Plate cells out in complete growth media (with serum) at 5000 cells/well in a 96 well format and let them incubate overnight at 37 degrees and 5% CO2. • Day 2—Dump off media and add a dose response of appropriate ligands in complete growth media (IL-19 at 10, 100, and 1000 ng/ml.), along with a positive control retinoic acid (100 uM) in complete growth media, while leaving some wells in complete growth media as controls of how the cells normally grow under normal conditions. Put the cells in incubator and let the assay go for 72 hrs. • Day 5—Add 15 ul/well of MTT reagent, let cells inc. for 4 hrs., then add 100 ul of stop solution, let cells inc. for an additional 1 hr., then read the plate on a multilabel counter (Victor2, PerkinElmer Life Sciences Inc., Boston). The MTT protocol will give you two readings, one at a 650 wavelength (background) and one at a 572 wavelength. Subtract the 650 reading from the 572 reading to get your actual output. These numbers are averaged and converted to a % inhibition value.
Molecule,inhibition at 100 µM (retinoic acid 100 uM),"maximal inhibition of growth (IL-19 dose response 10, 100, and 1000 ng/ml)"
"CC1=C(/C=C/C(C)=C/C=C/C(C)=C/C(=O)O)C(C)(C)CCC1 [Retnoic Acid, retinoic acid]",53%,
B1,,38%
